Results published in patent publication US12257253B2, “Triamterene or nolatrexed for use in the treatment of phenylketonuria” (SOM INNOVATION BIOTECH, S.A., priority 2019, dated 2025).

Tests used:
Type in all cases: binding
[1] = biological target: T1, wild-type PAH (Homo sapiens (Human), UniProt P00439); test: Isothermal titration calorimetry; settings: ITC
Excerpt: 4. Isothermal Titration Calorimetry
Isothermal titration calorimetry (ITC) is a quantitative physical technique used to determine binding affinities of small molecules to proteins or other larger molecules [Freyer M. W. and Lewis E. A., Methods in Cell Biology, 2008, vol. 4, Chapter 4, pages 79-113]. The measurement detects changes of heat generated or absorbed when molecules interact, generate binding kinetics and thermodynamic profile of the molecular interaction. The following parameters are determined: KD (equilibrium dissociation constant), N (stoichiometry of the interaction (mol ligand/mol complex)), ΔH (enthalpy change), ΔG (Gibbs energy), T (temperature) and ΔS (entropy change).
ITC experiments were performed at 25° C. using a MicroCal PEAQ-ITC microcalorimeter (Malvern). PAH proteins were prepared in a HEPES buffer (HEPES 20 mM Hepes, 0.2M NaCl, 1 mM DTT, pH 7.0) containing 5% DMSO, in order to match the final DMSO concentration of the compounds dilutions. The protein concentration used (30 μM) was determined using ultraviolet (UV) absorbance at 280 nm. The compounds ([…]) were prepared using the exact same buffer. Twelve injections of 3 μL of compound/ligand were titrated into the sample cell (containing the protein) over 31 min with a stirring speed of 750 rpm. Data was baseline adjusted by subtracting the background obtained from equivalent injections of compound into the buffer solution. The titration curves were analyzed using MicroCal PEAQ-ITC analytics software (version 1.1.0.1262, Malvern Instruments Ltd.) using a model that assumes a set of identical binding sites where the total heat of the solution is calculated as:
[formula] where n is the number of binding sites, Mt is the total protein concentration in the cell, ΔH is the molar heat of ligand binding, Xt is the total concentration of ligand, and K the binding constant (K=1/KD). The heat released per injection (i), ΔQ(i), is calculated following the equation below, which compensates for the volume that is added in each injection (ΔVi). V0 is the initial volume in the cell.
The parameters, n, K, and ΔH are determined using non-linear square fitting using the Levenberg-Marquardt algorithm.

[2] = biological target: Arg261Gln (R261Q) PAH (Homo sapiens (Human), UniProt P00439, R261Q); test: Thermal stability shift assay (DSF); settings: compound 30 μM (BH4 43 μM)
Chain of Arg261Gln (R261Q) PAH (P00439 whole entry R261Q): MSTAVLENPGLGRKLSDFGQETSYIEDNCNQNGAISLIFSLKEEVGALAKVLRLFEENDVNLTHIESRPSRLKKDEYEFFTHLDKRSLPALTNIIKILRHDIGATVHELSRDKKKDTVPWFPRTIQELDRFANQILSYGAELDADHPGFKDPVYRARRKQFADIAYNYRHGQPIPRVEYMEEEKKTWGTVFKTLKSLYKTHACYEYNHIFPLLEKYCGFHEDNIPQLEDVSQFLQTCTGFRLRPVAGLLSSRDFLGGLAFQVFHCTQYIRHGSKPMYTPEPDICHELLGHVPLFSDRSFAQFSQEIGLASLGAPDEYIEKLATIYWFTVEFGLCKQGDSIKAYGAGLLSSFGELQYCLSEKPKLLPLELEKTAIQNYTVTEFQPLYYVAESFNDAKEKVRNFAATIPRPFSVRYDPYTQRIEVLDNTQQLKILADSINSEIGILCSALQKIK
Excerpt: (§1) 1. Thermal Stability Shift Assay
(§2) Thórólfsson et al. (Biochemistry, 2002, 41(24), 7573-7585) describe that the thermal denaturation of hPAH occurs in three stages: (i) unfolding of the four regulatory domains, which is responsible for the low-temperature calorimetric transition (ii) unfolding of two (out of the four) catalytic domains, which is responsible for the high-temperature transition; and (iii) irreversible protein denaturation. The most important domain for stabilization is the regulatory domain.
(§3) Thus, to test the compound effect on thermal stability of the target protein a thermal stability shift assay (also called differential scanning fluorimetry (DSF)) was performed [Niesen F. H. et al., Nat Protoc., 2007, 2(9), 2212-2221; Gersting S. W. et al., Human Molecular Genetics, 2010, 19(10), 2039-2049; and Gersting S. W. et al., J. Biol Chem. 2010, 285(40), 30686-30697]. DSF monitors thermal unfolding of proteins in the presence of a fluorescent dye (SYPRO Orange; λexc=465 nm, λem=610 nm) and was performed using a real-time PCR instrument (Applied BioSystems 7000HT Fast Real-Time PCR System). Compounds that increase the midpoints of thermal denaturation (Tm) are considered to bind and stabilize the protein.
(§4) In brief, purified wild-type or Arg261Gln (which is the most frequent mutation responsive to BH4) PAH proteins (diluted in 20 mM NaHEPES, pH 7.0 and 200 mM NaCl, 2 mM DTT to 2 mg/ml) were used at a final concentration of 0.2 mg/ml protein per sample. The compounds were tested at a final concentration of 30 μM. A no compound control (NCC) was used according to the compound solvent at a final concentration of 2% (H2O, DMSO, ethanol, methanol). As a positive control we used the natural cofactor 6R-L-erythro-5,6,7,8-tetrahydrobiopterin (BH4, CAS 69056-38-8) stabilized in 100 mM dithiothreitol (DTT), in a final concentration of 43 μM. To exclude unspecific effects of the compound to the dye, a no protein control (NPC) was added (buffer, compound, dye). The measurement was performed in duplicates and samples were denatured by scanning a temperature range of 20 to 75° C. at a scan rate of 0.5° C./min.
(§5) The data was normalized and the respective Tm values were calculated by bi-phasic equation to determine temperatures at which half denaturation occurred (Software GraphPadPrism). To identify compound specific effects on the thermal stability of the target protein, the reference Tm (NCC) was used to calculate the temperature shift between compound treated and not treated protein (Tm−TmNCC), from duplicates, to provide transition midpoints shifts (ΔTm1 and ΔTm2). Tm1 and Tm2 are the two different transition mid point of the unfolding process of the protein as the tetrameric protein PAH unfolds in two steps due to its domains. A shift in Tm1 of 2° C. reflects a relevant increase in thermal stability on the regulatory domain and, thus, is considered a positive result.

[3] = biological target: T1, wild-type PAH; test: Thermal stability shift assay (DSF); settings: compound 30 μM (BH4 43 μM)
Excerpt: as §1, §2, §3, §4, §5

[4] = shift of transition midpoint 1 vs NCC
[5] = shift of transition midpoint 2 vs NCC

T1 sequence (P00439 whole entry): as the sequence (P00439 whole entry R261Q) above, with Q261R counted along it

- Kd ([1]; 25° C., WT PAH): 3.03 µM
- N (stoichiometry) ([1]; 25° C., WT PAH): 0.726 ± 0.00 sites
- ΔG ([1]; 25° C., WT PAH): -7.53 kcal/mol
- ΔH ([1]; 25° C., WT PAH): -5.54 ± 0.17 kcal/mol
- −TΔS ([1]; 25° C., WT PAH): -1.99 kcal/mol
- Kd (in words) ([1]; recombinant PAH): low micromolar range
- ΔTm1 R261Q PAH [2, 4]: 2.21 °C
- ΔTm2 R261Q PAH [2, 5]: 2.82 °C
- ΔTm1 WT PAH [3, 4]: 0.33 °C
- ΔTm2 WT PAH [3, 5]: 3.23 °C
Compound: Nc1nc(N)c2nc(-c3ccccc3)c(N)nc2n1 [Triamterene, 2,4,7-triamino-6-phenylpteridine]
